Source: patent US4855287A, “Aminoglycoside compounds, processes for production thereof, and pharamaceutical composition containing the same” (Kowa Company, Ltd., priority 1985, dated 1989)
Where two headings read alike, the source gives them in different places.

Test system: Bacillus subtilis ATCC 6633
Assay: Test for antibacterial activity (paper disk, diameter of inhibitory zone, before and after incubation in rat liver/kidney homogenate)
Type: cell-based
Settings: 200 mcq/ml, 8 mm paper disk
Procedure: Each of the test compounds shown in the following table was dissolved in a concentration of 200 mcq/ml in a homogenate of a 10% physiological saline solution of an organ of a rat, and incubated at 37° C. for 2 hours. An enzymatic reaction was stopped by adding an equal amount of ethanol. The antibacterial activity of the test compound before incubation was compared with that after incubation. The incubation was carried out in an equal amount mixture of a liver homogenate and a kidney homogenate. The antibacterial activity was measured by a paper disk having a diameter of 8 mm using Bacillus subtilis ATCC 6633 as a test organism, and shown by the diameter of the resulting inhibitory zone.

[1] = ATCC6633, after incubation at 37° C. for 2 hours in rat liver homogenate and kidney homogenate, read-out: Diameter of the inhibitory zone, after incubation
[2] = ATCC6633, before incubation, read-out: Diameter of the inhibitory zone, before incubation

## CCCCCCCCCC(=O)OCCOC(=O)CC[C@H](N)C(=O)NCC(=O)N(C)C1C(O)CC(N)C(OC2OC(C(C)N)CCC2N)C1O (stereo partly drawn) [Example 15, 2"-N-[γ-O-(2-decanoyloxyethyl)-L-glutamyl]-5-de-O-methyl-KA-6606I]
[1]
  zone of inhibition at 200 µg/mL: 24.4 mm
[2]
  zone of inhibition at 200 µg/mL: 13.9 mm

## CCCCCCCCCC(=O)OCC(COC(=O)CCCCCCCCC)OC(=O)CCC(N)C(=O)NCC(=O)N(C)C1C(O)CC(N)C(OC2OC(C(C)N)CCC2N)C1O [Example 16, 2"-N-{γ-O-[2-(1,3-bis-decanoyloxy)propyl]-L-glutamyl}-5-de-O-methyl-KA-6606I]
[1]
  zone of inhibition at 200 µg/mL: 17.5 mm
[2]
  zone of inhibition at 200 µg/mL: 12.5 mm

## CCCCCCCCCC(=O)OCC(COC(=O)CC[C@H](N)C(=O)NCC(=O)N(C)C1C(O)CC(N)C(OC2OC(C(C)N)CCC2N)C1O)OC(=O)CCCCCCCCC (stereo partly drawn) [Example 17, 2"-N-[γ-O-(2,3-bis-decanoyloxypropyl)-L-glutamyl]-5-de-O-methyl-KA-66606I]
[1]
  zone of inhibition at 200 µg/mL: 19.7 mm
[2]
  zone of inhibition at 200 µg/mL: 10.6 mm

## CCCCCCCCCC(=O)OCCCOC(=O)CC[C@H](N)C(=O)NCC(=O)N(C)C1C(O)CC(N)C(OC2OC(C(C)N)CCC2N)C1O (stereo partly drawn) [Example 18, 2"-N-[γ-O-(3-decanoyloxypropyl)-L-glutamyl]-5-de-O-methyl-KA-6606I]
[1]
  zone of inhibition at 200 µg/mL: 23.9 mm
[2]
  zone of inhibition at 200 µg/mL: 16.8 mm

## CCCCCCCCCCCCCCCCCC(=O)OCCCOC(=O)CC[C@H](N)C(=O)NCC(=O)N(C)C1C(O)CC(N)C(OC2OC(C(C)N)CCC2N)C1O (stereo partly drawn) [Example 19, 2"-N-[γ-O-(3-stearoyloxypropyl)-L-glutamyl]-5-de-O-methyl-KA-6606I]
[1]
  zone of inhibition at 200 µg/mL: 22.7 mm
[2]
  zone of inhibition at 200 µg/mL: 13.7 mm

## CC(N)C1CCC(N)C(OC2C(N)CC(O)C(N(C)C(=O)CNC(=O)[C@@H](N)CCC(=O)OCCCCOC(=O)c3cccc4ccccc34)C2O)O1 (stereo partly drawn) [Example 21, 2"-N-{γ-O-[4-(α-naphthoyloxy)butyl]-L-glutamyl}-5-de-O-methyl-KA-6606I]
[1]
  zone of inhibition at 200 µg/mL: 22.6 mm
[2]
  zone of inhibition at 200 µg/mL: 15.1 mm

## CCCCCCCCCC(=O)OCC(CCOC(=O)CC[C@H](N)C(=O)NCC(=O)N(C)C1C(O)CC(N)C(OC2OC(C(C)N)CCC2N)C1O)OC(=O)CCCCCCCCC (stereo partly drawn) [Example 22, 2"-N-{γ-[3,4-bis-(decanoyloxy)butyl]-L-glutamyl}-5-de-O-methyl-KA-6606I]
[1]
  zone of inhibition at 200 µg/mL: 18.3 mm
[2]
  zone of inhibition at 200 µg/mL: 10.7 mm

## CCCCCCCCCC(=O)OCC(CCCCOC(=O)CC[C@H](N)C(=O)NCC(=O)N(C)C1C(O)CC(N)C(OC2OC(C(C)N)CCC2N)C1O)OC(=O)CCCCCCCCC (stereo partly drawn) [Example 23, 2"-N-{γ-[5,6-bis-(decanoyloxy)hexyl]-L-glutamyl}-5-de-O-methyl-KA-6606I]
[1]
  zone of inhibition at 200 µg/mL: 19.5 mm
[2]
  zone of inhibition at 200 µg/mL: 10.5 mm

## CCCCCCCCCCCCCCCCCC(=O)OCCCCOC(=O)CC[C@H](N)C(=O)NCC(=O)N(C)C1C(O)CC(N)C(OC2OC(C(C)N)CCC2N)C1O (stereo partly drawn) [Example 24, 2"-N-[γ-O-(4-stearoyloxybutyl)-L-glutamyl]-5-de-O-methyl-KA-6606I]
[1]
  zone of inhibition at 200 µg/mL: 22.6 mm
[2]
  zone of inhibition at 200 µg/mL: 16.2 mm

## CC(N)C1CCC(N)C(OC2C(N)CC(O)C(N(C)C(=O)CNC(=O)[C@@H](N)CCC(=O)OCCCCOC(=O)CC[C@@H](C)[C@H]3CC[C@H]4[C@@H]5CC[C@@H]6C[C@H](O)CC[C@]6(C)[C@H]5C[C@H](O)[C@]34C)C2O)O1 (stereo partly drawn) [Example 26, 2"-N-[γ-O-(4-deoxycholyloxybutyl)-L-glutamyl]-5-de-O-methyl-KA-6606I]
[1]
  zone of inhibition at 200 µg/mL: 21.8 mm
[2]
  zone of inhibition at 200 µg/mL: 14.8 mm

## CCCCCCCCCC(=O)NCCCOC(=O)CC[C@H](N)C(=O)NCC(=O)N(C)C1C(O)CC(N)C(OC2OC(C(C)N)CCC2N)C1O (stereo partly drawn) [Example 28, 2"-N-[γ-O-(3-decanoylaminopropyl)-L-glutamyl]-5-de-O-methyl-KA-6606I]
[1]
  zone of inhibition at 200 µg/mL: 23.9 mm
[2]
  zone of inhibition at 200 µg/mL: 14.6 mm

## CCCNC(=O)CC[C@H](N)C(=O)NCC(=O)N(C)C1C(O)CC(N)C(OC2OC(C(C)N)CCC2N)C1O (stereo partly drawn) [Example 29, 2"-N-(N^γ -propyl-L-glutaminyl)-5-de-O-methyl-KA-6606I]
[1]
  zone of inhibition at 200 µg/mL: 24.6 mm
[2]
  zone of inhibition at 200 µg/mL: 15.1 mm

## CCCCCCNC(=O)CC[C@H](N)C(=O)NCC(=O)N(C)C1C(O)CC(N)C(OC2OC(C(C)N)CCC2N)C1O (stereo partly drawn) [Example 30, 2"-N-(N^γ-hexyl-L-glutaminyl)-5-de-O-methyl-KA-6606I]
[1]
  zone of inhibition at 200 µg/mL: 19.8 mm
[2]
  zone of inhibition at 200 µg/mL: 15 mm

## CCCCCCCCNC(=O)CC[C@H](N)C(=O)NCC(=O)N(C)C1C(O)CC(N)C(OC2OC(C(C)N)CCC2N)C1O (stereo partly drawn) [Example 31, 2"-N-(N^γ-octyl-L-glutaminyl)-5-de-O-methyl-KA-6606I]
[1]
  zone of inhibition at 200 µg/mL: 19 mm
[2]
  zone of inhibition at 200 µg/mL: 15.3 mm

## CCCCCCCCCCNC(=O)CC[C@H](N)C(=O)NCC(=O)N(C)C1C(O)CC(N)C(OC2OC(C(C)N)CCC2N)C1O (stereo partly drawn) [Example 32, 2"-N-(N^γ -decyl-L-glutaminyl)-5-de-O-methyl-KA-6606I]
[1]
  zone of inhibition at 200 µg/mL: 19 mm
[2]
  zone of inhibition at 200 µg/mL: 14.1 mm

## CC(N)C1CCC(N)C(OC2C(N)CC(O)C(N(C)C(=O)CNC(=O)[C@@H](N)CCC(=O)Nc3cccc4ccccc34)C2O)O1 (stereo partly drawn) [Example 33, 2"-N-[N^γ-(1-naphthyl)-L-glutamin-yl]-de-O-methyl-KA-6606I]
[1]
  zone of inhibition at 200 µg/mL: 23.5 mm
[2]
  zone of inhibition at 200 µg/mL: 15.7 mm

## CC(=O)NCCCNC(=O)CC[C@H](N)C(=O)NCC(=O)N(C)C1C(O)CC(N)C(OC2OC(C(C)N)CCC2N)C1O (stereo partly drawn) [Example 34, 2"-N-[N^γ -(3-acetylaminopropyl)-L-glutaminyl]-5-de-O-methyl-KA-66061]
[1]
  zone of inhibition at 200 µg/mL: 23.1 mm
[2]
  zone of inhibition at 200 µg/mL: 10.7 mm

## CCCC(=O)NCCCNC(=O)CC[C@H](N)C(=O)NCC(=O)N(C)C1C(O)CC(N)C(OC2OC(C(C)N)CCC2N)C1O (stereo partly drawn) [Example 35, 2"-N-[N^γ -(3-n-butyrylaminopropyl)-L-glutaminyl]-5de-O-methyl-KA-6606I]
[1]
  zone of inhibition at 200 µg/mL: 20.7 mm
[2]
  zone of inhibition at 200 µg/mL: 10.7 mm

## CCCCCC(=O)NCCCNC(=O)CC[C@H](N)C(=O)NCC(=O)N(C)C1C(O)CC(N)C(OC2OC(C(C)N)CCC2N)C1O (stereo partly drawn) [Example 36, 2"-N-[N^γ -(3-hexanoylaminopropyl)-L-glutaminyl]-5-de-O-methyl-KA-6606I]
[1]
  zone of inhibition at 200 µg/mL: 22.8 mm
[2]
  zone of inhibition at 200 µg/mL: 10.5 mm

## CCCCCCCC(=O)NCCCNC(=O)CC[C@H](N)C(=O)NCC(=O)N(C)C1C(O)CC(N)C(OC2OC(C(C)N)CCC2N)C1O (stereo partly drawn) [Example 37, 2"-N-[N^γ -(3-octanoylaminopropyl)-L-glutaminyl]-5-do-O-methyl-KA-6606I]
[1]
  zone of inhibition at 200 µg/mL: 25.1 mm
[2]
  zone of inhibition at 200 µg/mL: 14.1 mm

## CCCCCCCCCC(=O)NCCCNC(=O)CC[C@H](N)C(=O)NCC(=O)N(C)C1C(O)CC(N)C(OC2OC(C(C)N)CCC2N)C1O (stereo partly drawn) [Example 38, 2"-N-[N^γ -(3-decanoylaminopropyl)-L-glutaminyl]-5-de-O-methyl-KA-6606I]
[1]
  zone of inhibition at 200 µg/mL: 23.9 mm
[2]
  zone of inhibition at 200 µg/mL: 17.1 mm

## CCCCCCCCCCCC(=O)NCCCNC(=O)CC[C@H](N)C(=O)NCC(=O)N(C)C1C(O)CC(N)C(OC2OC(C(C)N)CCC2N)C1O (stereo partly drawn) [Example 39, 2"-N-[N^γ -(3-lauroylaminopropyl)-L-glutaminyl]-5-de-O-methyl-KA-6606I]
[1]
  zone of inhibition at 200 µg/mL: 21.2 mm
[2]
  zone of inhibition at 200 µg/mL: 9.8 mm
